In US6417202B1, “Pyridylpyrrole compounds useful as interleukin-and TNF antagonists” (Pfizer Inc., priority 1996, dated 2002) one finds melting point data, which are given here for 20 compounds.

Structures are written as SMILES.

One may read the melting point as the temperature of the solid-liquid transition. Turning to `CC(=O)c1c(-c2ccc(F)c(Cl)c2)[nH]c(-c2ccncc2)c1C` [Example 66, 3-Acetyl-2-(3-chloro-4-fluorophenyl)-4-methyl-5-(4-pyridyl)-1H-pyrrole], the melting point lay within 206 to 209 °C. `C=Cc1[nH]c(-c2ccncc2)c(C)c1C(C)=O` [Example 67, 3-Acetyl-4-methyl-5-(4-pyridyl)-2-vinyl-1H-pyrrole] returned a melting point of 150 to 155 °C. `CC(=O)c1c(-c2ccc(Cl)cc2)[nH]c(-c2ccncc2)c1C` [Example 68, 3-Acetyl-2-(4-chlorophenyl)-4-methyl-5-(4-pyridyl)-1H-pyrrole]: the melting point was 187.5 to 189.5 °C.

For the compound `CC(=O)c1c(-c2ccco2)[nH]c(-c2ccncc2)c1C` [Example 69, 3-Acetyl-2-(2-furyl)-4-methyl-5-(4-pyridyl)-1H-pyrrole], the melting point lay in the range of 218 to 220 °C. For the compound `CC(=O)c1c(-c2ccsc2)[nH]c(-c2ccncc2)c1C` [Example 70, 3-Acetyl-4-methyl-5-(4-pyridyl)-2-(3-thienyl)-1H-pyrrole], the melting point is 240 to 244 °C. The value for `CSc1ccc(-c2[nH]c(-c3ccncc3)c(C)c2C(C)=O)cc1` [Example 71, 3-Acetyl-4-methyl-2-(4-methylthiophenyl)-5-(4-pyridyl)-1H-pyrrole] was 169 to 172 °C; that for `CC(=O)c1c(-c2ccc(C(F)(F)F)cc2)[nH]c(-c2ccncc2)c1C` [Example 73, 3-Acetyl-4-methyl-5-(4-pyridyl)-2-(4-trifluoromethylphenyl)-1H-pyrrole] was 178.5 to 179.5 °C; that for `CC(=O)c1c(-c2ccc([S+](C)[O-])cc2)[nH]c(-c2ccncc2)c1C` (centres unmarked) [Example 75, 3-Acetyl-4-methyl-2-(4-methylsulfinylphenyl)-5-(4-pyridyl)-1H-pyrrole] was 249 to 250 °C. In the case of `CC(=O)c1c(N2CCN(c3ccccc3)CC2)[nH]c(-c2ccncc2)c1C` [Example 78, 3-Acetyl-4-methyl-2-(4-phenylpiperazin-1-yl)-5-(4-pyridyl)-1H-pyrrole] it was 218 to 220 °C. In the case of `CC(=O)c1c(N2C[C@@H](C)O[C@@H](C)C2)[nH]c(-c2ccncc2)c1C` [Example 80, 3-Acetyl-2-(cis-2,6-dimethylmorpholin-4-yl)-4-methyl-5-(4-pyridyl)-1H-pyrrole] it was 95 to 100 °C.

`CC(=O)c1c(N2CCN(c3ccccn3)CC2)[nH]c(-c2ccncc2)c1C` [Example 81, 3-Acetyl-4-methyl-5-(4-pyridyl)-2-{4-(2-pyridyl)piperazin-1-yl}-1H-pyrrole] displayed a melting point of 89 to 92 °C. For the compound `Cc1c(-c2ccncc2)[nH]c2c1C(=O)C(C)(C)CC2` [Example 82 (3,5,5-trimethyl), 4-Oxo-2-(4-pyridyl)-3,5,5-trimethyl-4,5,6,7-tetrahydro-1H-indole], the melting point lay in the range of 237 to 239 °C. The value for `Cc1c(-c2ccncc2)[nH]c2c1C(=O)CCC2(C)C` [Example 82 (3,7,7-trimethyl), 4-Oxo-2-(4-pyridyl)-3,7,7-trimethyl-4,5,6,7-tetrahydro-1H-indole] was 278 to 280 °C.

`CC(=O)c1c([N+](=O)[O-])[nH]c(-c2ccncc2)c1C` [Example 84, 3-Acetyl-4-methyl-2-nitro-5-(4-pyridyl)-1H-pyrrole] returned a melting point of 187 to 188 °C.

Regarding `Cc1c(-c2ccncc2)[nH]c2c1C(=O)CC(C)C2` (centres unmarked) [Example 86, 3,6-Dimethyl-4-oxo-2-(4-pyridyl)-4,5,6,7-tetrahydro-1H-indole], the melting point lay in the range of 247 to 248 °C. In the case of `Cc1c(-c2ccncc2)[nH]c2c1C(=O)CSC2` [Example 87, 3-Methyl-4-oxo-2-(4-pyridyl)-6-thia-4,5,6,7-tetrahydro-1H-indole] it was 209 to 210 °C; in that of `CC(=O)c1c(C=O)[nH]c(-c2ccncc2)c1C` [Example 88, 3Acetyl-2-formyl-4-methyl-5-(4-pyridyl)-1H-pyrrole], 208 to 209 °C. For the compound `CC(=O)c1c(CO)[nH]c(-c2ccncc2)c1C` [Example 89, 3-Acetyl-2-hydroxymethyl-4-methyl-5-(4-pyridyl)-1H-pyrrole], the melting point is 163 to 165 °C. Take `Cc1c(-c2ccncc2)[nH]c(-c2ccncc2)c1C(=O)CC(C)C` [Example 90, 4-Methyl-3-(3-methylbutanoyl)-2,5-di(4-pyridyl)-1H-pyrrole]: the melting point lay within 199 to 201 °C. In the case of `COC(=O)c1c(-c2ccccc2)[nH]c(-c2ccncc2)c1C` [Example 91, Methyl 4-Methyl-2-phenyl-5-(4-pyridyl)pyrrole-3-carboxylate] it was 202 to 204 °C.
